Measured values from the NIST ThermoML archive (doi:10.1021/je049671t).

Experiment: xn = mol fraction of the nth substance listed
Conditions: Liquid, Vibrating tube method

CC(C)C [2-methylpropane] + CCC
Conditions	mass density [kg/m3]
340 K, 4015.7 kPa, x2 = 0.25	490.21
340 K, 4498.6 kPa, x2 = 0.75	454.09
340 K, 4503 kPa, x2 = 0.25	492.08
340 K, 4508.4 kPa, x2 = 0.499	472.34
340 K, 4963.1 kPa, x2 = 0.75	456.51
340 K, 4964.9 kPa, x2 = 0.25	493.81
340 K, 4990.6 kPa, x2 = 0.499	474.5
340 K, 5450.5 kPa, x2 = 0.499	476.5
340 K, 5511.1 kPa, x2 = 0.75	459.22
340 K, 5522.3 kPa, x2 = 0.25	495.84
340 K, 5960.4 kPa, x2 = 0.75	461.33
340 K, 5982 kPa, x2 = 0.499	478.68
340 K, 6022.3 kPa, x2 = 0.25	497.59
340 K, 6506.1 kPa, x2 = 0.75	463.79
340 K, 6513 kPa, x2 = 0.499	480.75
340 K, 6527.5 kPa, x2 = 0.25	499.31
340 K, 6963 kPa, x2 = 0.25	500.75
340 K, 7045.5 kPa, x2 = 0.499	482.76
340 K, 7081.1 kPa, x2 = 0.75	466.25
360 K, 2023.3 kPa, x2 = 0.25	441.34
360 K, 2495.4 kPa, x2 = 0.499	418.03
360 K, 2532.9 kPa, x2 = 0.25	445.56
360 K, 2996.3 kPa, x2 = 0.499	423.54
360 K, 3022.3 kPa, x2 = 0.25	449.26
360 K, 3496.3 kPa, x2 = 0.499	428.34
360 K, 3518.2 kPa, x2 = 0.75	399.53
360 K, 3519.8 kPa, x2 = 0.25	452.71
360 K, 3960 kPa, x2 = 0.75	405.21
360 K, 3971.4 kPa, x2 = 0.75	405.35
360 K, 3988.8 kPa, x2 = 0.499	432.58
360 K, 4022.3 kPa, x2 = 0.25	455.95
360 K, 4484.8 kPa, x2 = 0.75	411.08
360 K, 4488.6 kPa, x2 = 0.499	436.48
360 K, 4520.2 kPa, x2 = 0.25	458.95
360 K, 4923.7 kPa, x2 = 0.75	415.42
360 K, 4983.9 kPa, x2 = 0.25	461.58
360 K, 5000.3 kPa, x2 = 0.499	440.17
360 K, 5436.6 kPa, x2 = 0.499	443.06
360 K, 5456.3 kPa, x2 = 0.75	420.47
360 K, 5515.2 kPa, x2 = 0.25	464.45
360 K, 5932 kPa, x2 = 0.75	424.33
360 K, 5982.9 kPa, x2 = 0.25	466.86
360 K, 5992.3 kPa, x2 = 0.499	446.54
360 K, 6444.6 kPa, x2 = 0.25	469.09
360 K, 6487.4 kPa, x2 = 0.499	449.41
360 K, 6509.8 kPa, x2 = 0.75	428.41
360 K, 6932.1 kPa, x2 = 0.75	431.05
360 K, 6956.4 kPa, x2 = 0.25	471.48
360 K, 6977 kPa, x2 = 0.499	452.14
380 K, 2977.2 kPa, x2 = 0.25	394.6
380 K, 3495.5 kPa, x2 = 0.25	403.43
380 K, 3540.7 kPa, x2 = 0.499	358.66
380 K, 3969.5 kPa, x2 = 0.25	409.99
380 K, 4047.9 kPa, x2 = 0.499	373.76
380 K, 4453.9 kPa, x2 = 0.25	415.7
380 K, 4501.9 kPa, x2 = 0.499	383.09
380 K, 5016 kPa, x2 = 0.499	391.43
380 K, 5019.6 kPa, x2 = 0.25	421.52
380 K, 5488.5 kPa, x2 = 0.25	425.84
380 K, 5506.7 kPa, x2 = 0.499	398.06
380 K, 5943.1 kPa, x2 = 0.499	403.16
380 K, 5972.1 kPa, x2 = 0.25	429.89
380 K, 6422.5 kPa, x2 = 0.499	408.17
380 K, 6471.8 kPa, x2 = 0.25	433.74
380 K, 6885.8 kPa, x2 = 0.499	412.58
380 K, 7060.8 kPa, x2 = 0.25	437.93

mass density [kg/m3]
Conditions	340 K	360 K	380 K
x2 = 0.25	478.17	440.78	390.71
x2 = 0.499	457.03	416.83	346.9
x2 = 0.75	436.07	388.35	–
